The values that follow come from US8324258B2, “F1F0-ATPase inhibitors and related methods” (The Regents of the University of Michigan, priority 2007, dated 2012).

Assay [1] addresses T1, F1F0-ATPase (Bos taurus, UniProt P13621). Briefly: Inhibition of ATP hydrolysis by the F1F0-ATPase. In kind it is biochemical. The note with it: IC40: concentration for 40% inhibition. The method, then: (§1) The compounds listed in Table 9 were tested for activity against F1F0-ATPase by measuring ATP synthesis and ATP hydrolysis. In addition, the compounds were assessed for cytotoxicity in Ramos cells Inhibition of ATP synthesis and hydrolysis by the F1F0-ATPase and cytotoxicity in Ramos cells was measured as described in K. M. Johnson et al. Chemistry & Biology 2005, 12, 485-496.

The test system of a further assay is Ramos cells. Nature of the assay: Cytotoxicity (cell death) in Ramos cells. It counts as cell-based. As to the method:
as §1

Assay [2] concerns the target T1, F1F0-ATPase. Briefly: Inhibition of ATP synthesis by the F1F0-ATPase. It counts as biochemical. The conditions noted are these: IC40: concentration for 40% inhibition. The method, then:
as §1

With `O=C(/N=C(/NCCN1CCNC1=O)Nc1ccc(-c2ccccc2)cc1)c1cccc(Cl)c1` [IV-7, (Z/E)-N-((biphenyl-4-ylamino)(2-(2-oxoimidazolidin-1-yl)ethylamino)methylene)-3-chlorobenzamide], the “ATP Hydrolysis (IC40 μM)” value on F1F0-ATPase [1] was greater than 30 µM. Further, the EC50 (usually the concentration needed to bring the measured effect to its halfway point) in the assay on Ramos cells (Homo sapiens, Ramos) is greater than 30 µM. For the same compound, the “ATP Synthesis (IC40 μM)” value on F1F0-ATPase [2] was greater than 20 µM.

For the compound `O=C(N=C(NCCc1c[nH]cn1)Nc1cccc(Cl)c1)c1cccc(Cl)c1` [III-18, (Z/E)-N-((2-(1H-imidazol-4-yl)ethylamino)(3-chlorophenylamino)methylene)-3-chlorobenzamide], the “ATP Hydrolysis (IC40 μM)” value on F1F0-ATPase [1] is greater than 20 µM. This compound also showed an EC50 in the assay with Ramos cells (Ramos cells) greater than 10 µM. The “ATP Synthesis (IC40 μM)” value on F1F0-ATPase [2] is greater than 10 µM.

For the compound `O=C(/N=C(/NCCc1nc[nH]n1)Nc1ccc(-c2ccccc2)cc1)c1cccc(Cl)c1` [IV-3, (Z/E)-N-((2-(1H-1,2,4-triazol-3-yl)ethylamino)(biphenyl-4-ylamino)methylene)-3-chlorobenzamide], at F1F0-ATPase [1], the “ATP Hydrolysis (IC40 μM)” value is less than 10 µM. Also, the half-maximal effective concentration (EC50) with Ramos cells (Homo sapiens, Ramos) was greater than 10 µM. In addition, at F1F0-ATPase [2], the “ATP Synthesis (IC40 μM)” value was less than 10 µM.

`N#Cc1ccc(C(=O)N=C(NCCc2c[nH]cn2)Nc2cccc(-c3ccccc3)c2)cc1` [VI-6, (Z/E)-N-((2-(1H-imidazol-4-yl)ethylamino)(biphenyl-3-ylamino)methylene)-4-cyanobenzamide]: on F1F0-ATPase [1], the “ATP Hydrolysis (IC40 μM)” value was greater than 30 µM. Further, in the assay on Ramos cells (Ramos cells), the EC50 was greater than 10 µM. Besides, at F1F0-ATPase [2], the “ATP Synthesis (IC40 μM)” value is less than 10 µM.

Take `O=C(N=C(NCCc1c[nH]cn1)Nc1ccc(C(F)(F)F)cc1)c1cccc(Cl)c1` [III-25, (Z/E)-N-((2-(1H-imidazol-4-yl)ethylamino)(4-(trifluoromethyl)phenylamino)methylene)-3-chlorobenzamide]: the “ATP Hydrolysis (IC40 μM)” value at F1F0-ATPase [1] is less than 10 µM. For the same compound, the EC50 with Ramos cells (Ramos cells) is greater than 10 µM. The “ATP Synthesis (IC40 μM)” value at F1F0-ATPase [2] is greater than 10 µM.

As for `O=C(N=C(NCCc1c[nH]cn1)Nc1ccc(-c2ccccc2)cc1)c1ccc(Br)cc1` [II-11, (Z/E)-N-((2-(1H-imidazol-4-yl)ethylamino)(biphenyl-4-ylamino)methylene)-4-bromobenzamide], on F1F0-ATPase [1], the “ATP Hydrolysis (IC40 μM)” value was greater than 20 µM. In the assay on Ramos cells (Ramos cells), the EC50 is greater than 30 µM. For the same compound, the “ATP Synthesis (IC40 μM)” value on F1F0-ATPase [2] is greater than 10 µM.

For the compound `O=C(/N=C(/NCCc1cn[nH]c1)Nc1ccc(-c2ccccc2)cc1)c1cccc(Cl)c1` [IV-4, (Z/E)-N-((2-(1H-pyrazol-4-yl)ethylamino)(biphenyl-4-ylamino)methylene)-3-chlorobenzamide], the “ATP Hydrolysis (IC40 μM)” value on F1F0-ATPase [1] was greater than 10 µM. In the assay on Ramos cells (Homo sapiens, Ramos), this compound came in with an EC50 of less than 10 µM. The “ATP Synthesis (IC40 μM)” value on F1F0-ATPase [2] was less than 10 µM.

With `CN(C)S(=O)(=O)c1ccc(NC(=NC(=O)c2cccc(Cl)c2)NCCc2cnc[nH]2)cc1` [III-39, (Z/E)-N-((2-(1H-imidazol-5-yl)ethylamino)(4-(N,N-dimethylsulfamoyl)phenylamino)methylene)-3-chlorobenzamide], the “ATP Hydrolysis (IC40 μM)” value at F1F0-ATPase [1] was greater than 30 µM. For the same compound, in the assay on Ramos cells (Ramos cells), the EC50 is greater than 30 µM. The “ATP Synthesis (IC40 μM)” value at F1F0-ATPase [2] was greater than 20 µM.

For the compound `O=C(N=C(NCCc1c[nH]cn1)Nc1ccccc1F)c1cccc(Cl)c1` [III-14, (Z/E)-N-((2-(1H-imidazol-4-yl)ethylamino)(2-fluorophenylamino)methylene)-3-chlorobenzamide], the “ATP Hydrolysis (IC40 μM)” value on F1F0-ATPase [1] is greater than 30 µM. The EC50 in the assay on Ramos cells (Ramos cells) was greater than 30 µM. On F1F0-ATPase [2], the “ATP Synthesis (IC40 μM)” value is greater than 20 µM.

As to `CCc1ccc(NC(=NC(=O)c2cccc(Cl)c2)NCCc2c[nH]cn2)cc1` [III-43, (Z/E)-N-((2-(1H-imidazol-4-yl)ethylamino)(4-ethylphenylamino)methylene)-3-chlorobenzamide], at F1F0-ATPase [1], the “ATP Hydrolysis (IC40 μM)” value was greater than 20 µM. Further, the EC50 in the assay on Ramos cells (Ramos cells) is greater than 10 µM. The “ATP Synthesis (IC40 μM)” value on F1F0-ATPase [2] was greater than 10 µM.

With `C[C@H](Cc1c[nH]cn1)N/C(=N/C(=O)c1cccc(Cl)c1)Nc1ccc(-c2ccccc2)cc1` [IV-6, (R,Z/E)-N-((1-(1H-imidazol-4-yl)propan-2-ylamino)(biphenyl-4-ylamino)methylene)-3-chlorobenzamide], at F1F0-ATPase [1], the “ATP Hydrolysis (IC40 μM)” value is less than 10 µM. In the assay on Ramos cells (Homo sapiens, Ramos), this compound gave an EC50 of less than 10 µM. Further, the “ATP Synthesis (IC40 μM)” value at F1F0-ATPase [2] is less than 10 µM.

As for `O=C(N=C(NCCc1c[nH]cn1)Nc1cccc(-c2ccccc2)c1)c1ccc(Cl)cc1` [VI-14, (Z/E)-N-((2-(1H-imidazol-4-yl)ethylamino)(biphenyl-3-ylamino)methylene)-4-chlorobenzamide], on F1F0-ATPase [1], the “ATP Hydrolysis (IC40 μM)” value is greater than 10 µM. In addition, the concentration for a half-maximal effect (EC50) in the assay on Ramos cells (Ramos cells) is greater than 10 µM. The “ATP Synthesis (IC40 μM)” value at F1F0-ATPase [2] is less than 10 µM.

`Cc1cccc(C(=O)N=C(NCCc2c[nH]cn2)Nc2ccc(-c3ccccc3)cc2)c1` [II-2, (Z/E)-N-((2-(1H-imidazol-4-yl)ethylamino)(biphenyl-4-ylamino)methylene)-3-methylbenzamide]: the “ATP Hydrolysis (IC40 μM)” value at F1F0-ATPase [1] is greater than 10 µM. The compound also displayed an EC50 in the assay with Ramos cells (Ramos cells) greater than 30 µM. For the same compound, the “ATP Synthesis (IC40 μM)” value at F1F0-ATPase [2] was greater than 10 µM.

As for `Cc1cccc(C(=O)N=C(NCCc2c[nH]cn2)Nc2cccc(-c3ccccc3)c2)c1` [VI-2, (Z/E)-N-((2-(1H-imidazol-4-yl)ethylamino)(biphenyl-3-ylamino)methylene)-3-methylbenzamide], at F1F0-ATPase [1], the “ATP Hydrolysis (IC40 μM)” value was greater than 10 µM. The compound further showed an EC50 in the assay with Ramos cells (Ramos cells) greater than 10 µM. At F1F0-ATPase [2], the “ATP Synthesis (IC40 μM)” value was less than 10 µM.

In the case of `N#Cc1cccc(-c2ccc(NC(=NC(=O)c3cccc(Cl)c3)NCCc3c[nH]cn3)cc2)c1` [III-45, (Z/E)-N-((2-(1H-imidazol-4-yl)ethylamino)(3′-cyanobiphenyl-4-ylamino)methylene)-3-chlorobenzamide], the “ATP Hydrolysis (IC40 μM)” value at F1F0-ATPase [1] is greater than 30 µM. The compound also showed an EC50 in the assay with Ramos cells (Ramos cells) of less than 10 µM. Further, the “ATP Synthesis (IC40 μM)” value on F1F0-ATPase [2] was less than 10 µM.

Turning to `CS(=O)(=O)c1cccc(NC(=NC(=O)c2cccc(Cl)c2)NCCc2cnc[nH]2)c1` [III-37, (Z/E)-N-((2-(1H-imidazol-5-yl)ethylamino)(3-(methylsulfonyl)phenylamino)methylene)-3-chlorobenzamide], at F1F0-ATPase [1], the “ATP Hydrolysis (IC40 μM)” value was greater than 30 µM. This compound also displayed an EC50 in the assay on Ramos cells (Ramos cells) greater than 30 µM. The “ATP Synthesis (IC40 μM)” value on F1F0-ATPase [2] is greater than 20 µM.

`Cc1ccc(C(=O)N=C(NCCc2c[nH]cn2)Nc2ccccc2-c2ccccc2)cc1` [Compound I-5, (E/Z)—N-((2-(1H-imidazol-4-yl)ethylamino)(biphenyl-2-ylamino)methylene)-4-methylbenzamide]: on F1F0-ATPase [1], the “ATP Hydrolysis (IC40 μM)” value was greater than 10 µM. Besides, in the assay on Ramos cells (Ramos cells), the EC50 is greater than 20 µM. On F1F0-ATPase [2], the “ATP Synthesis (IC40 μM)” value is greater than 10 µM.

For the compound `O=C(N=C(NCCc1c[nH]cn1)Nc1ccccc1-c1ccccc1)c1ccccc1Cl` [Compound I-1, (Z/E)-N-((2-(1H-imidazol-4-yl)ethylamino)(biphenyl-2-ylamino)methylene)-2-chlorobenzamide], the “ATP Hydrolysis (IC40 μM)” value at F1F0-ATPase [1] is greater than 30 µM. This compound gave an EC50 in the assay with Ramos cells (Ramos cells) greater than 30 µM. On F1F0-ATPase [2], the “ATP Synthesis (IC40 μM)” value was greater than 20 µM.

Turning to `N#Cc1ccc(C(=O)N=C(NCCc2c[nH]cn2)Nc2ccc(-c3ccccc3)cc2)cc1` [II-7, (Z/E)-N-((2-(1H-imidazol-4-yl)ethylamino)(biphenyl-4-ylamino)methylene)-4-cyanobenzamide], the “ATP Hydrolysis (IC40 μM)” value at F1F0-ATPase [1] was greater than 10 µM. In the assay on Ramos cells (Ramos cells), the EC50 was greater than 30 µM. The “ATP Synthesis (IC40 μM)” value at F1F0-ATPase [2] was greater than 20 µM.

Regarding `O=C(N=C(NCCc1c[nH]cn1)Nc1cccc(-c2ccccc2)c1)c1ccc(Cl)c(Cl)c1` [VI-9, (Z/E)-N-((2-(1H-imidazol-4-yl)ethylamino)(biphenyl-3-ylamino)methylene)-3,4-dichlorobenzamide], at F1F0-ATPase [1], the “ATP Hydrolysis (IC40 μM)” value was less than 10 µM. Moreover, the EC50 with Ramos cells (Ramos cells) was less than 10 µM. In addition, the “ATP Synthesis (IC40 μM)” value at F1F0-ATPase [2] was less than 10 µM.

Consider `O=C(N=C(NCCc1c[nH]cn1)Nc1ccccc1-c1ccccc1)c1cccc(Cl)c1` [Compound I-8, (Z/E)-N-((2-(1H-imidazol-4-yl)ethylamino)(biphenyl-2-ylamino)methylene)-3-chlorobenzamide], for which, at F1F0-ATPase [1], the “ATP Hydrolysis (IC40 μM)” value is greater than 10 µM. This compound also registered an EC50 in the assay on Ramos cells (Ramos cells) greater than 20 µM. Further, the “ATP Synthesis (IC40 μM)” value at F1F0-ATPase [2] is greater than 10 µM.

On to `O=C(/N=C(/NCCc1c[nH]cn1)Nc1ccc2cc[nH]c2c1)c1cccc(Cl)c1` [Compound V-3, (Z/E)-N-((2-(1H-imidazol-4-yl)ethylamino)(1H-indol-6-ylamino)methylene)-3-chlorobenzamide], for which, at F1F0-ATPase [1], the “ATP Hydrolysis (IC40 μM)” value was less than 10 µM. In the assay with Ramos cells (Homo sapiens, Ramos), this compound came in with a half-maximal effective concentration (EC50) greater than 20 µM. Moreover, at F1F0-ATPase [2], the “ATP Synthesis (IC40 μM)” value is greater than 10 µM.

On to `O=C(N=C(NCCc1c[nH]cn1)Nc1ccc(-c2ccccc2)cc1)c1ccc([N+](=O)[O-])cc1` [II-13, (Z/E)-N-((2-(1H-imidazol-4-yl)ethylamino)(biphenyl-4-ylamino)methylene)-4-nitrobenzamide], for which the “ATP Hydrolysis (IC40 μM)” value at F1F0-ATPase [1] is greater than 30 µM. For the same compound, the EC50 in the assay with Ramos cells (Ramos cells) was greater than 30 µM. Moreover, the “ATP Synthesis (IC40 μM)” value on F1F0-ATPase [2] was greater than 20 µM.

For the compound `Cc1ccccc1C(=O)N=C(NCCc1c[nH]cn1)Nc1ccccc1-c1ccccc1` [Compound I-3, (E/Z)—N-((2-(1H-imidazol-4-yl)ethylamino)(biphenyl-2-ylamino)methylene)-2-methylbenzamide], the “ATP Hydrolysis (IC40 μM)” value on F1F0-ATPase [1] was greater than 30 µM. In the assay with Ramos cells (Ramos cells), the half-maximal effective concentration (EC50) is greater than 30 µM. The “ATP Synthesis (IC40 μM)” value on F1F0-ATPase [2] is greater than 20 µM.

For the compound `Cc1ccc(C(=O)N=C(NCCc2c[nH]cn2)Nc2cccc(-c3ccccc3)c2)cc1` [VI-1, (Z/E)-N-((2-(1H-imidazol-4-yl)ethylamino)(biphenyl-3-ylamino)methylene)-4-methylbenzamide], the “ATP Hydrolysis (IC40 μM)” value at F1F0-ATPase [1] is greater than 10 µM. Besides, in the assay with Ramos cells (Ramos cells), the EC50 is greater than 10 µM. Moreover, the “ATP Synthesis (IC40 μM)” value on F1F0-ATPase [2] was less than 10 µM.

Consider `Cc1ccc(NC(=NC(=O)c2cccc(Cl)c2)NCCc2c[nH]cn2)cc1` [III-10, (Z/E)-N-((2-(1H-imidazol-4-yl)ethylamino)(p-toluidino)methylene)-3-chlorobenzamide], for which, at F1F0-ATPase [1], the “ATP Hydrolysis (IC40 μM)” value was greater than 20 µM. This compound gave an EC50 in the assay on Ramos cells (Ramos cells) greater than 10 µM. Moreover, the “ATP Synthesis (IC40 μM)” value at F1F0-ATPase [2] is greater than 10 µM.
